Patent US20250163056A1, “NONMUSCLE MYOSIN II INHIBITORS” (The University of Florida Research Foundation, Inc., priority 2018, published 2025)

Key:
Bovine cardiac myosin = Bovine cardiac myosin (Bos taurus (Bovine), UniProt Q9BE39); test: Cardiac muscle myosin II actin-activated ATPase assay (NADH-coupled); assay type: biochemical; set-up: key to Ratio CMMII:NMII Ki/EC50: NMII-sel: no Ki value for cardiac myosin II could be determined; the compounds had no detectable inhibitory properties versus the cardiac myosin II; conditions: for Ki: 300 nM cardiac myosin, 10 μM actin, 25° C., read-out: CMMII KI; for Ratio CMMII:NMII Ki/EC50: cardiac myosin II Ki over nonmuscle myosin II EC50
Sequence of Bovine cardiac myosin (Q9BE39 whole entry): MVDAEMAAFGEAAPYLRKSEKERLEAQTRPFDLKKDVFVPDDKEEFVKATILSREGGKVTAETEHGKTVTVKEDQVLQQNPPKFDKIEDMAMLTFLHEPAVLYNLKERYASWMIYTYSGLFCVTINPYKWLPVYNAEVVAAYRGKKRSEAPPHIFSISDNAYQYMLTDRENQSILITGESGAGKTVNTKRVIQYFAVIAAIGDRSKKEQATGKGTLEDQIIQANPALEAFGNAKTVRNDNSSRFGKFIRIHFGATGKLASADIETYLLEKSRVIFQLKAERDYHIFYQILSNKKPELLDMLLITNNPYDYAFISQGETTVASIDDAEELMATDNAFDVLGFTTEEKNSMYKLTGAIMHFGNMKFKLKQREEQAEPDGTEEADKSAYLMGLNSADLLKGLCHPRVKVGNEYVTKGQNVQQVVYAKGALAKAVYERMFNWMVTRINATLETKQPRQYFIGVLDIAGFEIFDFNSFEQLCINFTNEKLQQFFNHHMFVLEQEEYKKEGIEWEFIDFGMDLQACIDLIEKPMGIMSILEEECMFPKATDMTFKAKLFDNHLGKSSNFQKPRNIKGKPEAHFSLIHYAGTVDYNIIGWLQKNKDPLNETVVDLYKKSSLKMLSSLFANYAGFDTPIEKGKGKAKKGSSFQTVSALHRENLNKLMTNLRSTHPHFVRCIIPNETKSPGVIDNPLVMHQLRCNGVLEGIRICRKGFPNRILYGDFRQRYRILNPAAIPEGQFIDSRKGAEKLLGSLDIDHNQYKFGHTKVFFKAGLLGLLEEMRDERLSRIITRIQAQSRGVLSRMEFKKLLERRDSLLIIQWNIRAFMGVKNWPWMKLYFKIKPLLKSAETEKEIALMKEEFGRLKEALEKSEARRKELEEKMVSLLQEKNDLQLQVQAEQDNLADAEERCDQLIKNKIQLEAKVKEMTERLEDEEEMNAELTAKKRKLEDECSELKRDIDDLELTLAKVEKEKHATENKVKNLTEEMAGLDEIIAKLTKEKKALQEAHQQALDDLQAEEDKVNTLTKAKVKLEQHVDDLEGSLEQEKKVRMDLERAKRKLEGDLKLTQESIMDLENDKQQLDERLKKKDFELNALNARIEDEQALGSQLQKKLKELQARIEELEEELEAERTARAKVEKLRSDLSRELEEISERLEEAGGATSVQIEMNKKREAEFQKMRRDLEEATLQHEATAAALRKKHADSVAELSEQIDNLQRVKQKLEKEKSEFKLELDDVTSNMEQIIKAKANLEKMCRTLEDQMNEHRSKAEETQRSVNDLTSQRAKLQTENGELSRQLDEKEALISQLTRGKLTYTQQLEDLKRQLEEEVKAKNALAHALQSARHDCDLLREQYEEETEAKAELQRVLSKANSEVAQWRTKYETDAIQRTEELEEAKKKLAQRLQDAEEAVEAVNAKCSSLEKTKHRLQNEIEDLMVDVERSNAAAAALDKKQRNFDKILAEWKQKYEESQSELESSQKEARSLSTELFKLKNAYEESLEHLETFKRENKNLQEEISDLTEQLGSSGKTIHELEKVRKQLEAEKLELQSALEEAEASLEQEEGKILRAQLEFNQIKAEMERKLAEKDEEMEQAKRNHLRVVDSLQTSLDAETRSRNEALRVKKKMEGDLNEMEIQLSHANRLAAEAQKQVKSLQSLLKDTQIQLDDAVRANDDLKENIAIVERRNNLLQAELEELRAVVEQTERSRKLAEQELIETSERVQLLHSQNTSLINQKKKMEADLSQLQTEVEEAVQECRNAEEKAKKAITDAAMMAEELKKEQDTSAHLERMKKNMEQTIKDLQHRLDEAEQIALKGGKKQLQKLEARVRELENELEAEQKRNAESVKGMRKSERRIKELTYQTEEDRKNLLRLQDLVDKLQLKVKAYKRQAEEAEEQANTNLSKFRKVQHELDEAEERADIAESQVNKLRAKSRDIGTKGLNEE
Sequence of Bovine cardiac myosin (P85100 whole entry partner): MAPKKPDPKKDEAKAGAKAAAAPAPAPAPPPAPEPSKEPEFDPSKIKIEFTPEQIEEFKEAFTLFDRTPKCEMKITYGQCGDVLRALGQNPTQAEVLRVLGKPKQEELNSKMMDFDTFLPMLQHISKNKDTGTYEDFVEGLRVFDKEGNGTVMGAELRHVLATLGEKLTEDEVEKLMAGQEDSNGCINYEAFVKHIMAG
Sequence of Bovine cardiac myosin (Q3SZE5 whole entry partner): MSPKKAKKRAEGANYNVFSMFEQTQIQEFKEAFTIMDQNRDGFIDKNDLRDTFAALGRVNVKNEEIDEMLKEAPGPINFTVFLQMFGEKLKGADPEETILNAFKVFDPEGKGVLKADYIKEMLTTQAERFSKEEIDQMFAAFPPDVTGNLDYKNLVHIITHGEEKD
Procedure, shortened: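 NADH-coupled (PK/LDH) assay at 25° C: 300 nM bovine cardiac myosin, 10 μM rabbit F-actin, 1 mM ATP, 1 mM PEP, 220 μM NADH, MOPS pH 7.0, 0.5% DMSO. NADH fluorescence was followed for 30 min; Ki values came from 16-point triplicate data (top 50 uM) fitted to a quadratic one-to-one binding model.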

[1] = Photostability, percentage remaining undegraded under illumination or in the dark; conditions: for Photostability 4 hours: percentage remaining undegraded after 4 hours illumination; for Photostability 24 hours: percentage remaining undegraded after 24 hours illumination; for Photostability Dark (24 h): percentage remaining undegraded in the dark
Rabbit skeletal myosin = test: Skeletal muscle myosin II actin-activated ATPase assay; assay type: biochemical; conditions: 20 nM skeletal muscle myosin II; read-out: SKMMII KI
Procedure, shortened: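 NADH-coupled (PK/LDH) actin-activated ATPase at 25 °C with 20 nM rabbit skeletal myosin II, 10 μM F-actin, 1 mM ATP, 1 mM PEP, 220 μM NADH in MOPS pH 7.0, MgCl2, EGTA, BSA, DTT, 0.5% DMSO. NADH fluorescence followed 30 min; inhibitory constants from 16-point triplicate curves (top 50 uM), quadratic one-to-one fit.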

Compound: Cc1ccc2c(c1)C(=O)[C@]1(O)CCN(c3ccc4ncc(N)cc4c3)C1=N2 [BPN-0028652]
- Ki (Bovine cardiac myosin): 80 µM
- Ratio CMMII:NMII Ki/EC50 (Bovine cardiac myosin): 9.6
- Photostability 4 hours [1]: 86.2%
- Photostability 24 hours [1]: 22.8%
- Photostability Dark (24 h) [1]: 98.5%
- Ki (Rabbit skeletal myosin): 1.3 µM

Compound: Cc1cc2c(cc1C)C(=O)[C@]1(O)CCN(c3cnc(C)c(C)c3)C1=N2 [BPN-0028694]
- Ki (Bovine cardiac myosin): 16 µM
- Ratio CMMII:NMII Ki/EC50 (Bovine cardiac myosin): 8.4
- Photostability 4 hours [1]: 55.3%
- Photostability 24 hours [1]: 11.2%
- Photostability Dark (24 h) [1]: 98.0%
- Ki (Rabbit skeletal myosin): 1.7 µM

Compound: Cc1cc(C)c2c(c1)N=C1N(c3ccc4ncccc4c3)CC[C@@]1(O)C2=O [BPN-0028697]
- Ki (Bovine cardiac myosin): 60 µM
- Ratio CMMII:NMII Ki/EC50 (Bovine cardiac myosin): 7.5
- Photostability 4 hours [1]: 88.4%
- Photostability 24 hours [1]: 25.4%
- Photostability Dark (24 h) [1]: 97.3%
- Ki (Rabbit skeletal myosin): 1.9 µM

Compound: Cc1cc2c(cc1C)C(=O)[C@]1(O)CCN(c3cnc(C)c(C)c3)C1=N2 [BPN-0028731]
- Ki (Bovine cardiac myosin): 40 µM
- Ratio CMMII:NMII Ki/EC50 (Bovine cardiac myosin): 7.7
- Photostability 4 hours [1]: 37.6%
- Photostability 24 hours [1]: 7.4%
- Photostability Dark (24 h) [1]: >99%
- Ki (Rabbit skeletal myosin): 2.2 µM

Compound: Cc1cc2c(cc1C)C(=O)[C@]1(O)CCN(c3cnc(CO)c(C)c3)C1=N2 [BPN-0028733]
- Ki (Bovine cardiac myosin): 27 µM
- Ratio CMMII:NMII Ki/EC50 (Bovine cardiac myosin): 3.1
- Photostability 4 hours [1]: 82.1%
- Photostability 24 hours [1]: 14.8%
- Photostability Dark (24 h) [1]: 96.6%
- Ki (Rabbit skeletal myosin): 6.8 µM

Compound: Cc1cc2c(cc1C)C(=O)[C@]1(O)CCN(c3cnc4c(c3)NCCO4)C1=N2 [BPN-0028734]
- Ki (Bovine cardiac myosin): 15 µM
- Ratio CMMII:NMII Ki/EC50 (Bovine cardiac myosin): 5.0
- Photostability 4 hours [1]: 76%
- Photostability 24 hours [1]: <1%
- Photostability Dark (24 h) [1]: 96.3%
- Ki (Rabbit skeletal myosin): 2.9 µM

Compound: Cc1cc2c(cc1C)C(=O)[C@]1(O)CCN(c3ccc4ncc(CO)cc4c3)C1=N2 [BPN-0028736]
- Ki (Bovine cardiac myosin): 90 µM
- Ratio CMMII:NMII Ki/EC50 (Bovine cardiac myosin): 6.9
- Photostability 4 hours [1]: 64%
- Photostability 24 hours [1]: 2%
- Photostability Dark (24 h) [1]: 95.3%
- Ki (Rabbit skeletal myosin): 1.5 µM

Compound: Cc1cc2c(cc1C)C(=O)[C@]1(O)CCN(c3ccc4c(c3)COCCN4)C1=N2 [BPN-0028758]
- Ki (Bovine cardiac myosin): 210 µM
- Ratio CMMII:NMII Ki/EC50 (Bovine cardiac myosin): 4.1
- Photostability 4 hours [1]: 90.9%
- Photostability 24 hours [1]: 55.3%
- Photostability Dark (24 h) [1]: 93.3%
- Ki (Rabbit skeletal myosin): 40 µM

Compound: Cc1cc2c(cc1C)C(=O)[C@]1(O)CCN(c3cnc(C#N)c(C)c3)C1=N2 [BPN-0028760]
- Ki (Bovine cardiac myosin): 16 µM
- Ratio CMMII:NMII Ki/EC50 (Bovine cardiac myosin): 4.3
- Photostability 4 hours [1]: 87.9%
- Photostability 24 hours [1]: 83%
- Photostability Dark (24 h) [1]: 87.6%
- Ki (Rabbit skeletal myosin): 0.94 µM

Compound: Cc1cc2c(cc1C)C(=O)[C@]1(O)CCN(c3ccc4c(c3)NCCO4)C1=N2 [BPN-0028790]
- Ki (Bovine cardiac myosin): 2.4 µM
- Ratio CMMII:NMII Ki/EC50 (Bovine cardiac myosin): 3.8
- Photostability 4 hours [1]: 92.7%
- Photostability 24 hours [1]: 64%
- Photostability Dark (24 h) [1]: 95.3%
- Ki (Rabbit skeletal myosin): 1 µM

Compound: COc1ncc(N2CC[C@@]3(O)C(=O)c4cc(C)c(C)cc4N=C23)cc1Cl [BPN-0028820]
- Ratio CMMII:NMII Ki/EC50 (Bovine cardiac myosin): NMII-sel
- Photostability 4 hours [1]: 80.9%
- Photostability 24 hours [1]: 62.7%
- Photostability Dark (24 h) [1]: 94.2%
- Ki (Rabbit skeletal myosin): 3 µM

Compound: Cc1cc2c(cc1C)C(=O)[C@]1(O)CCN(c3cnc4c(c3)OCCN4)C1=N2 [BPN-0028821]
- Ki (Bovine cardiac myosin): 12 µM
- Ratio CMMII:NMII Ki/EC50 (Bovine cardiac myosin): 12.5
- Photostability 4 hours [1]: 89.8%
- Photostability 24 hours [1]: 29.1%
- Photostability Dark (24 h) [1]: 98.5%
- Ki (Rabbit skeletal myosin): 0.77 µM

Compound: Cc1ccc2cc(N3CC[C@@]4(O)C(=O)c5sc(C)cc5N=C34)ccc2n1 [BPN-0028863]
- Ratio CMMII:NMII Ki/EC50 (Bovine cardiac myosin): NMII-sel
- Photostability 4 hours [1]: 98.8%
- Photostability 24 hours [1]: 94.7%
- Photostability Dark (24 h) [1]: 99%
- Ki (Rabbit skeletal myosin): 2.8 µM

Compound: CCc1cc(N2CC[C@@]3(O)C(=O)c4cc(C)c(C)cc4N=C23)ccn1 [BPN-0028864]
- Ratio CMMII:NMII Ki/EC50 (Bovine cardiac myosin): NMII-sel
- Photostability 4 hours [1]: 97.4%
- Photostability 24 hours [1]: 88.4%
- Photostability Dark (24 h) [1]: 98.4%
- Ki (Rabbit skeletal myosin): 12 µM

Compound: Cc1cc2c(cc1C)C(=O)[C@]1(O)CCN(c3ccc4ncc(CN(C)C)cc4c3)C1=N2 [BPN-0028866]
- Ratio CMMII:NMII Ki/EC50 (Bovine cardiac myosin): NMII-sel
- Photostability 4 hours [1]: 77.8%
- Photostability 24 hours [1]: 2.9%
- Photostability Dark (24 h) [1]: 97.8%
- Ki (Rabbit skeletal myosin): 400 µM

Compound: CCc1ccc2cc(N3CC[C@@]4(O)C(=O)c5cc(C)c(C)cc5N=C34)ccc2n1 [BPN-0028867]
- Ratio CMMII:NMII Ki/EC50 (Bovine cardiac myosin): NMII-sel
- Photostability 4 hours [1]: 69.9%
- Photostability 24 hours [1]: 1%
- Photostability Dark (24 h) [1]: 98.7%
- Ki (Rabbit skeletal myosin): 1.3 µM

Compound: Cc1cc2c(cc1C)C(=O)[C@]1(O)CCN(c3ccc4nc(C)c(C)cc4c3)C1=N2 [BPN-0028868]
- Ki (Bovine cardiac myosin): 24 µM
- Ratio CMMII:NMII Ki/EC50 (Bovine cardiac myosin): 31.6
- Photostability 4 hours [1]: 46.7%
- Photostability 24 hours [1]: 43.3%
- Photostability Dark (24 h) [1]: 98.9%
- Ki (Rabbit skeletal myosin): 0.23 µM

Compound: Cc1cc2c(cc1C)C(=O)[C@]1(O)CCN(c3ccc4nc(CN(C)C)ccc4c3)C1=N2 [BPN-0028897]
- Ki (Bovine cardiac myosin): 300 µM
- Ratio CMMII:NMII Ki/EC50 (Bovine cardiac myosin): 33.3
- Photostability 4 hours [1]: 82.8%
- Photostability 24 hours [1]: 5.4%
- Photostability Dark (24 h) [1]: 98.4%
- Ki (Rabbit skeletal myosin): 110 µM

Compound: Cc1ccc2cc(N3CC[C@@]4(O)C(=O)c5cc(C)sc5N=C34)ccc2n1 [BPN-0028898]
- Ki (Bovine cardiac myosin): 95 µM
- Ratio CMMII:NMII Ki/EC50 (Bovine cardiac myosin): 31.7
- Photostability 4 hours [1]: 93.4%
- Photostability 24 hours [1]: 58.1%
- Photostability Dark (24 h) [1]: 96.4%
- Ki (Rabbit skeletal myosin): 1.9 µM

Compound: Cc1cc2c(cc1C)C(=O)[C@]1(O)CCN(c3ccc4nc(N)ccc4c3)C1=N2 [BPN-0028899]
- Ratio CMMII:NMII Ki/EC50 (Bovine cardiac myosin): NMII-sel
- Photostability 4 hours [1]: 70.8%
- Photostability 24 hours [1]: 29.7%
- Photostability Dark (24 h) [1]: 97.8%
- Ki (Rabbit skeletal myosin): 3.8 µM

Compound: CCc1nc2cc(N3CC[C@@]4(O)C(=O)c5cc(C)c(C)cc5N=C34)ccc2s1 [BPN-0028918]
- Ki (Bovine cardiac myosin): 11 µM
- Ratio CMMII:NMII Ki/EC50 (Bovine cardiac myosin): 5.5
- Photostability 4 hours [1]: 54.2%
- Photostability 24 hours [1]: 7.8%
- Photostability Dark (24 h) [1]: >99%
- Ki (Rabbit skeletal myosin): 0.64 µM

Compound: Cc1cc2c(cc1C)C(=O)[C@]1(O)CCN(c3ccc4sc(C(C)C)nc4c3)C1=N2 [BPN-0028919]
- Ratio CMMII:NMII Ki/EC50 (Bovine cardiac myosin): NMII-sel
- Photostability 4 hours [1]: 48.4%
- Photostability 24 hours [1]: <1%
- Photostability Dark (24 h) [1]: 98.5%
- Ki (Rabbit skeletal myosin): 1.4 µM

Compound: Cc1cc2c(cc1C)C(=O)[C@]1(O)CCN(c3cnc4c(c3)CCCC4)C1=N2 [BPN-0028920]
- Ratio CMMII:NMII Ki/EC50 (Bovine cardiac myosin): NMII-sel
- Photostability 4 hours [1]: 36.6%
- Photostability 24 hours [1]: 2.5%
- Photostability Dark (24 h) [1]: 98.4%
- Ki (Rabbit skeletal myosin): 3.9 µM

Compound: Cc1cc2c(cc1C)C(=O)[C@]1(O)CCN(c3ccc4c(c3)OCCO4)C1=N2 [BPN-0028921]
- Ki (Bovine cardiac myosin): 8.4 µM
- Ratio CMMII:NMII Ki/EC50 (Bovine cardiac myosin): 11.2
- Photostability 4 hours [1]: 2.8%
- Photostability 24 hours [1]: 3.1%
- Photostability Dark (24 h) [1]: 97.2%
- Ki (Rabbit skeletal myosin): 1 µM

Compound: Cc1cc2c(cc1C)C(=O)[C@]1(O)CCN(c3ccc4c(c3)NCCS4)C1=N2 [BPN-0028922]
- Ki (Bovine cardiac myosin): 9.7 µM
- Ratio CMMII:NMII Ki/EC50 (Bovine cardiac myosin): 8.8
- Photostability 4 hours [1]: 86.1%
- Photostability 24 hours [1]: 27.7%
- Photostability Dark (24 h) [1]: 94.8%
- Ki (Rabbit skeletal myosin): 0.77 µM

Compound: Cc1cc2c(cc1C)C(=O)[C@]1(O)CCN(c3ccc4c(c3)CCCC4)C1=N2 [BPN-0028923]
- Ki (Bovine cardiac myosin): 30 µM
- Ratio CMMII:NMII Ki/EC50 (Bovine cardiac myosin): 8.6
- Photostability 4 hours [1]: 77.5%
- Photostability 24 hours [1]: 1%
- Photostability Dark (24 h) [1]: 98.1%
- Ki (Rabbit skeletal myosin): 6 µM

Compound: Cc1cc2c(cc1C)C(=O)[C@]1(O)CCN(c3ccc4c(c3)OCCC4)C1=N2 [BPN-0028924]
- Ki (Bovine cardiac myosin): 20 µM
- Ratio CMMII:NMII Ki/EC50 (Bovine cardiac myosin): 11.8
- Photostability 4 hours [1]: 44.7%
- Photostability 24 hours [1]: <1%
- Photostability Dark (24 h) [1]: 97.7%
- Ki (Rabbit skeletal myosin): 2.6 µM

Compound: Cc1cc2c(cc1C)C(=O)[C@]1(O)CCN(c3ccc4c(c3)NCCC4)C1=N2 [BPN-0028925]
- Ki (Bovine cardiac myosin): 5.8 µM
- Ratio CMMII:NMII Ki/EC50 (Bovine cardiac myosin): 7.3
- Photostability 4 hours [1]: 85.9%
- Photostability 24 hours [1]: 24.7%
- Photostability Dark (24 h) [1]: 93.7%
- Ki (Rabbit skeletal myosin): 0.7 µM
